Converted amounts (≈) assume the structure as drawn. Where two headings read alike, the source gives them in different places.
Assays:
L1210 cells = assay: Cytotoxicity, MTA (Microculture Tetrazolium Assay) test; type: cell-based; details: Mus musculus, cytotoxicity on L1210 cells, read-out: IC50
Protocol: The cytotoxicity of compounds 5, 9, and 10-21 was determined in L1210 cells using the MTA (Microculture Tetrazolium Assay) test.

M. microti (MYC-942272) = assay: Growth inhibition in liquid culture, CFU plating (MIC99); type: cell-based
[1] = test system: Mycobacterium tuberculosis H37Rv; design: species or system C57BL/6 and BalbC mice; details: mouse, in vivo
[2] = test system: murine bone marrow macrophages infected by M. tuberculosis H37Rv; assay: Antibacterial activity on infected bone marrow macrophages (CFU count of lysates); type: cell-based
Macrophages = assay: Cytotoxicity, MTT test; type: cell-based; details: cytotoxicity on macrophages
Protocol: (§1) The cytotoxicity of compounds 9 and 16 was further assessed in various mammalian cell lines using the MTT test. RAW and A549 cell lines were maintained in RPMI 1640 medium without L-GLU supplemented with 10% Fetal calf serum (FCS), penicillin-streptomycin solution 1 % at 37 °C in air with 5 % CO2. VERO cell lines were maintained in D-MEM medium without L-GLU supplemented with 10% Fetal calf Serum (FCS), penicillin-streptomycin solution 1 % at 37 °C in air with 5 % CO2. Proliferating cells were seeded for 96-well microtitration plates at a density of 5. 10^5 cells/mL which were further incubated for 24 h at 37°C under 5 % CO2 in air before each assay. Various concentrations of solutions of 9 and 16 (10 µl/well) in 1.25 % dimethylsulfoxide (DMSO)) were added and then incubated for 24 hours under the above conditions. At the end of incubation, 20 µl of dimethylthiazolyl diphenyl tetrazolium bromide solution (MTT) (7.5 mg/ml) was then added into each well and further incubated for 4 h at 37°C to allow the formation of formazan. The crystals of formazan were then dissolved with 100 µl of an acidic solution (Sodium dodecyl sulfate (SDS) 10 %, HCl 10 mM). The optical density of each well was measured at 595 nm using a Multiwell plate reader. The values given are the average means of six replicates. The 50 % inhibition concentration was determined by curve fitting.

VERO cells = assay: Cytotoxicity, MTT test; type: cell-based; details: for IC50: cytotoxicity on VERO cells, MTT, 24 hours; for Selectivity Index: summary statement, cell type not specified
Protocol: as §1

[3] = test system: Mycobacterium smegmatis mc^2155; assay: Mycobacterial growth inhibition in liquid culture (MIC99); type: cell-based; details: Mycolicibacterium smegmatis, MC2155|MC^2155, 48 h, two-day's growth at 37°C, 99% decrease vs DMSO control
Pneumococcus pneumoniae = assay: Growth inhibition in liquid medium, CFU plating (MIC99); type: cell-based; details: Gram-positive
Candida albicans = assay: In vitro activity (MIC99) against Candida albicans; type: cell-based
Protocol: The antifungal activity of compounds 5, 9, and 11-22 against Candida albicans was analyzed by the measure of the MIC99 concentration (see Table 1). Table 1. In Vitro Activity against Candida albicans of pyranodibenzofuran derivatives

M. bovis BCG (Pasteur) = assay: microbe, parasite or virus in culture; type: cell-based; details: Mycobacterium tuberculosis variant bovis BCG
M. tuberculosis H37Ra = assay: Growth inhibition in liquid culture, CFU plating (MIC99); type: cell-based; details: Mycobacterium tuberculosis
[4] = test system: Mycobacterium tuberculosis H37Rv; assay: Mycobacterial growth inhibition in liquid culture, CFU plating (MIC99); type: cell-based; details: Mycobacterium tuberculosis, H37RV; for MIC99: 504 h; for MIC: summary statement, read-out: MIC measured on M. tuberculosis
Klebsiella oxytoca = assay: Growth inhibition in liquid medium, CFU plating (MIC99); type: cell-based; details: Gram-negative
Protocol: (§2) To further assess its specificity, effect of compounds 9 and 16 was also assessed in vitro growth in liquid medium on a whole range of bacteria (Corynebacterium jeikeium, Escherichia coli, Enterococcus faecalis, Klebsiella oxytoca, Nocardia asteroides, Staphylococcus aureus, Pseudomonas aeruginosa and Streptomyces). Compounds were solubilized in dimethylsulfoxide (DMSO) and 100 µl of the appropriate dilution were added to a 5 ml culture with predetermined bacterium inoculum. Quantification of the bacteria was carried out by plating on appropriate agar serial 5-fold dilutions in medium, and colony forming units (CFUs) were ascertained after 24 to 48 hours according to the strains. Table 5. Antibacterial activity of compounds 9 and 16 on other bacteria

Enterococcus faecalis = assay: as above; type: cell-based; details: Gram-positive
Protocol: as §2

Corynebacterium jeikeium = assay: as above; type: cell-based; details: Actinomycetes
Protocol: as §2

Streptomyces Subspec = assay: as above; type: cell-based; details: Actinomycetes
Protocol: as §2

Nocardia asteroides = assay: as above; type: cell-based; details: Actinomycetes
Protocol: as §2

Escherichia coli = assay: as above; type: cell-based; details: Gram-negative
Protocol: as §2

Staphylococcus aureus = assay: as above; type: cell-based; details: Gram-positive
Protocol: as §2

Pseudomonas aeruginosa = assay: as above; type: cell-based; details: Gram-negative
Protocol: as §2

[5] = test system: M. tuberculosis Beijing (GC1237); assay: Growth inhibition in liquid culture, CFU plating (MIC99); type: cell-based; details: Mycobacterium tuberculosis
[6] = Macrophage, 24 h, read-out: IC50
[7] = Chlorocebus sabaeus, Vero, 24 h, read-out: IC50
[8] = mc2155, read-out: MIC99 on M. smegmatis
[9] = H37Rv, three weeks growth in 7H9, CFU on 7H11, NI = no inhibition at 1 mg/mL, read-out: MIC99 on M. tuberculosis
[10] = M. tuberculosis H37Rv, three week growth in 7H9/OADC

Structure (SMILES) | IC50 (Macrophages; [6]) [mg/L] | IC50 (Macrophages; 24 hours) [mg/L] | IC50 (VERO cells; [7]) [mg/L] | IC50 (VERO cells) [mg/L] | Selectivity Index (VERO cells) | MIC99 [3, 8] [mg/L] | MIC99 (M. bovis BCG (Pasteur)) [mg/L] | MIC99 (M. tuberculosis H37Ra) [mg/L] | MIC99 [4, 9] [mg/L] | MIC99 [4, 10] [mg/L] | MIC [4] [mg/L] | MIC99 (Enterococcus faecalis) [mg/L] | MIC99 (Corynebacterium jeikeium) [mg/L] | MIC99 (Nocardia asteroides) [mg/L] | MIC99 (Escherichia coli) [mg/L] | MIC99 (Pseudomonas aeruginosa) [mg/L] | also measured
CC1(C)C=Cc2c(ccc3oc4ccccc4c23)O1 [Compound 9, 3,3-dimethyl-3H-benzofuro[3,2-f][1]benzopyran] | > 50 | 80 (≈ 320 µM) | > 50 | 80 (≈ 320 µM) | above 10 | 5 (≈ 20 µM) | 10 (≈ 40 µM) | 10 (≈ 40 µM) | 5 (≈ 20 µM) | < 5 | < 6.25 | > 500 | > 150 | 12.8 (≈ 51.1 µM) | > 600 | > 500 | IC50 (L1210 cells): > 14 mg/L; MIC99 (M. microti (MYC-942272)): 1 mg/L (≈ 4 µM); bacteria detected at 30 days post infection (bacterial load, CFU) [1]: no bacteria was detected in 2 out of 3 mice; CFU ([2]; 5 µg/mL, 24 hours treatment, untreated control 4000 ± 1414): 3000 ± 816; CFU ([2]; 5 µg/mL, 48 hours treatment, untreated control 17500 ± 12583): 2875 ± 250; reduction of bacterial load ([2]; 10µg/mL at 24 hours): 60%; CFU ([2]; 10 µg/mL, 24 hours treatment, untreated control 4000 ± 1414): 1500 ± 577; CFU ([2]; 10 µg/mL, 48 hours treatment, untreated control 17500 ± 12583): 10000 ± 7360; CFU ([2]; 50 µg/mL, 24 hours treatment, untreated control 4000 ± 1414): 1750 ± 1500; CFU ([2]; 50 µg/mL, 48 hours treatment, untreated control 17500 ± 12583): 3800 ± 497; MIC99 (Pneumococcus pneumoniae): > 500 mg/L; MIC99 (Candida albicans; Candida albicans, > 99 % inhibition of growth, read-out: MIC99 C. albicans): > 600 mg/L; MIC99 (Candida albicans; Fungus, Candida albicans (table of other bacteria), read-out: MIC99): > 600 mg/L; MIC99 (Klebsiella oxytoca): > 600 mg/L; MIC99 (Streptomyces Subspec): > 500 mg/L; MIC99 (Staphylococcus aureus): > 100 mg/L
CC1(C)CCc2c(ccc3oc4ccccc4c23)O1 [Compound 16, 1,2-dihydro-3,3-dimethyl-3H-benzofuro[3,2-f][1]benzopyran] | > 50 | > 100 | > 50 | 100 (≈ 396 µM) | above 10 | 1 (≈ 3.96 µM) | 10 (≈ 39.6 µM) | 10 (≈ 39.6 µM) | 5 (≈ 19.8 µM) | < 5 | < 6.25 | > 500 | > 150 | 15 (≈ 59.4 µM) | > 500 | > 500 | MIC99 ([3]; read-out: MIC99 on M. smegmatis, mc2155): 5 mg/L (≈ 19.8 µM); MIC99 [5]: < 5 mg/L
